Assay [1] has as its system Aortic ring. Briefly: Relaxation of phenyphrine-induced constriction in rat aortic rings. It counts as functional, tissue-based. The settings on record: Aorta.
The subject of assay [2] is Aortic ring. Briefly: Relaxation of phenyphrine-induced constriction in rat aortic rings depleted with tetrahydrobiopterin. It counts as functional, tissue-based. The settings on record: Aorta.
For assay [3], the target named is Nitric oxide synthase 1 (Homo sapiens) (UniProt P29475). The assay is described as follows: Activity of tetrahydrobiopterin free nNOS expressed in Escherichia coli at 1 to 100 uM.
Assay [4] has the same target. Briefly: Activity of tetrahydrobiopterin free nNOS assessed as increase in NO in presence of NADPH and arginine at 1 to 200 uM.

Active and inactive are the calls of the source. No cut-off for these calls is given here.

Chain of Nitric oxide synthase 1 (Homo sapiens) (P29475 whole entry): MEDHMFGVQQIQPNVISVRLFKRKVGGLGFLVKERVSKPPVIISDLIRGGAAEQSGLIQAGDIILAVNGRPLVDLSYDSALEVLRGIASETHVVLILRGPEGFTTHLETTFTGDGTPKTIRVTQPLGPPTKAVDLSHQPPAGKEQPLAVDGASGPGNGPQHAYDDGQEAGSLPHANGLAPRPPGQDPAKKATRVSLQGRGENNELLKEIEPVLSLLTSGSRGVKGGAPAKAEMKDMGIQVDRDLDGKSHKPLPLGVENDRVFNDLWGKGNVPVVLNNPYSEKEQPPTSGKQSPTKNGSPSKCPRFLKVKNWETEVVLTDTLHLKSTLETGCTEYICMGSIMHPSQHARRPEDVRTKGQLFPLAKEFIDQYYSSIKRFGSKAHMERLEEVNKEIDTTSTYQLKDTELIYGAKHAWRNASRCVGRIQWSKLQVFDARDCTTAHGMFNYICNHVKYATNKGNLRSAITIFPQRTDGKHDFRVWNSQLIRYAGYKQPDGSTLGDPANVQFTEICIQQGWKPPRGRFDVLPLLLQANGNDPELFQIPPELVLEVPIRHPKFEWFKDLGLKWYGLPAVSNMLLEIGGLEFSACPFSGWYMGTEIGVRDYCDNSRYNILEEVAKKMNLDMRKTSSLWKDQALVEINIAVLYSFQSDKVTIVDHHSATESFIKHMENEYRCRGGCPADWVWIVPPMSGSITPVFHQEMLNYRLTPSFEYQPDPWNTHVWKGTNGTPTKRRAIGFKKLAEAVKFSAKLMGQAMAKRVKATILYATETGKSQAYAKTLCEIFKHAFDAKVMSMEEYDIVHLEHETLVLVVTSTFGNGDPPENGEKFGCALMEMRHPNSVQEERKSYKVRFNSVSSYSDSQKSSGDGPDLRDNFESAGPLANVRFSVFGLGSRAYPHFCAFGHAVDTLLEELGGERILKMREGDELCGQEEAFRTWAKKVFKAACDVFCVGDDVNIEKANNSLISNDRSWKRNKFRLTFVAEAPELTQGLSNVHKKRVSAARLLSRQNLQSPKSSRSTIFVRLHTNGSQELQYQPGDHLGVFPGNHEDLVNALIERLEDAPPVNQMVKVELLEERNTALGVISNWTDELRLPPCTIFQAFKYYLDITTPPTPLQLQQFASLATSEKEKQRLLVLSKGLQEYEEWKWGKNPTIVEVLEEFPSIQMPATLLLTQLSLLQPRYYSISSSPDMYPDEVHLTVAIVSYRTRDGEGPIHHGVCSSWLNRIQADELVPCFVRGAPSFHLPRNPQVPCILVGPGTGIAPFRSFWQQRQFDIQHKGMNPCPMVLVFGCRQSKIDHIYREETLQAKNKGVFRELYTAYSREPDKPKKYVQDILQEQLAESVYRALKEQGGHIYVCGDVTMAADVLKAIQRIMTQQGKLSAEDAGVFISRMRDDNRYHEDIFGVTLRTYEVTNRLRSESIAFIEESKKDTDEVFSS

With `C[C@H](O)[C@H](O)[C@H]1CNc2nc(N)[nH]c(=O)c2N1`, the outcome with Aortic ring [1] was inactive.

Take `CC(=O)C1=Nc2c(nc(N)[nH]c2=O)NC1(C)C`: in the assay on Aortic ring [2], the outcome was Active. In addition, the result in assay [3] was inactive.

Consider `CC(=O)C1Nc2c(nc(N)[nH]c2=O)NC1(C)C` (centres undefined), for which the outcome in assay [4] was Active.

For the origin of these results see ChEMBL document CHEMBL1143118, “6-Acetyl-7,7-dimethyl-5,6,7,8-tetrahydropterin is an activator of nitric oxide synthases” (Bioorg Med Chem Lett, 2008).
